The values that follow come from patent publication US10934298B2, “Substituted pyrazolo[1,5-a]pyrimidines for the treatment of medical disorders” (BIAL—BioTech Investments, Inc., priority 2016, dated 2021).

For this experiment, the target named is T1, glucocerebrosidase (Gcase) (Homo sapiens, UniProt P04062).
T1 construct: micellar solution containing 10 nM GCase and 100 nM saposin C
T1 sequence (P04062 40-536): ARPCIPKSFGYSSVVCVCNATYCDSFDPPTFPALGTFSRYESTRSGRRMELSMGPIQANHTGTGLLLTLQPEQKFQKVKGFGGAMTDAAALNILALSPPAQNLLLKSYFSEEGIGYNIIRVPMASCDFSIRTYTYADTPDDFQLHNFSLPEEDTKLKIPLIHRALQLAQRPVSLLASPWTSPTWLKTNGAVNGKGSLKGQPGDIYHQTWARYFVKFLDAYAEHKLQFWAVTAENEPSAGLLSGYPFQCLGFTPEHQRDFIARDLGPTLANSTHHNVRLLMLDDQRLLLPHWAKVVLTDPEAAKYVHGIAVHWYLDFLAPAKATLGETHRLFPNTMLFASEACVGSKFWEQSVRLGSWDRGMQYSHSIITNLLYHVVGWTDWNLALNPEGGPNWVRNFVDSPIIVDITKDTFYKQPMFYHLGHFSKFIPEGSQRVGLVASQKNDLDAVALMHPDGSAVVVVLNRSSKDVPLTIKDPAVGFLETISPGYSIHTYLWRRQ
As to the kind of experiment: Glucocerebrosidase (Gcase) activation assay with 4-methylumbelliferyl-beta-D-glucopyranoside substrate, saposin C and phosphatidylserine/triton micelles, fluorescence readout. It counts as biochemical. The procedure, abridged: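 10 nM GCase with 100 nM saposin C pre-incubated 30 min with compound in pH 4.7 phosphate/citrate PS/triton micelles, then mixed 1:1 with 2 mM 4-methylumbelliferyl-β-glucoside micellar substrate (stock level). Run 15 min at room temperature, stopped at pH 12.5; fluorescence 365/440 nm. Screened at 1.0 and 0.1 μM; 8-point curves from 5 μM.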

For the compound `Cc1cc(-c2ccc3ncn(C)c3c2)nc2c(C(=O)NC(C3CC3)C(F)(F)F)cnn12` (stereo not drawn) [III-304], the “Percent Gcase Activation, 0.1 μM Test Compound” value is “** (Gcase activation in the range of 10% up to 20%)” and the “Percent Gcase Activation, 1 μM Test Compound” value was “+++ (Gcase activation greater than 60%)”.

On to `Cc1cc(-c2ccc3ncn(C)c3c2)nc2c(C(=O)N[C@H](C3CC3)C(F)(F)F)cnn12` [III-305], for which the “Percent Gcase Activation, 0.1 μM Test Compound” value is on record as “*** (greater than 20% Gcase activation)” and the “Percent Gcase Activation, 1 μM Test Compound” value was “+++ (Gcase activation greater than 60%)”.

On to `Cc1cc(-c2ccc3ncn(C)c3c2)nc2c(C(=O)N[C@@H](C3CC3)C(F)(F)F)cnn12` [III-306], for which the “Percent Gcase Activation, 0.1 μM Test Compound” value was “*** (greater than 20% Gcase activation)” and the “Percent Gcase Activation, 1 μM Test Compound” value is “+++ (Gcase activation greater than 60%)”.

`Cc1cc(-c2ccc3nc[nH]c3c2)nc2c(C(=O)NC(C3CC3)C(F)(F)F)cnn12` (stereo not drawn) [III-307]: the “Percent Gcase Activation, 0.1 μM Test Compound” value is reported as “*** (greater than 20% Gcase activation)” and the “Percent Gcase Activation, 1 μM Test Compound” value was “++ (Gcase activation in the range of 30% up to 60%)”.

Regarding `Cc1cc(-c2cccc3nc[nH]c23)nc2c(C(=O)NC(C3CC3)C(F)(F)F)cnn12` (stereo not drawn) [III-308], the “Percent Gcase Activation, 0.1 μM Test Compound” value is “* (less than 10% Gcase activation)” and the “Percent Gcase Activation, 1 μM Test Compound” value is listed as “+++ (Gcase activation greater than 60%)”.

For the compound `Cc1cc(-c2cccc3ncn(C)c23)nc2c(C(=O)NC(C3CC3)C(F)(F)F)cnn12` (stereo not drawn) [III-309], the “Percent Gcase Activation, 0.1 μM Test Compound” value is recorded as “* (less than 10% Gcase activation)” and the “Percent Gcase Activation, 1 μM Test Compound” value is listed as “+ (less than 30% Gcase activation)”.

As to `Cc1cc(-c2cccc3c2ncn3C)nc2c(C(=O)NC(C3CC3)C(F)(F)F)cnn12` (stereo not drawn) [III-310], the “Percent Gcase Activation, 0.1 μM Test Compound” value is “** (Gcase activation in the range of 10% up to 20%)” and the “Percent Gcase Activation, 1 μM Test Compound” value is “+++ (Gcase activation greater than 60%)”.

For the compound `Cc1cc(-c2nc3ccccc3[nH]2)nc2c(C(=O)NC(C3CC3)C(F)(F)F)cnn12` (stereo not drawn) [III-311], the “Percent Gcase Activation, 0.1 μM Test Compound” value is “* (less than 10% Gcase activation)” and the “Percent Gcase Activation, 1 μM Test Compound” value is “++ (Gcase activation in the range of 30% up to 60%)”.

For `Cc1cc(-c2nc3ccccc3n2C)nc2c(C(=O)NC(C3CC3)C(F)(F)F)cnn12` (stereo not drawn) [III-312], the “Percent Gcase Activation, 0.1 μM Test Compound” value was “** (Gcase activation in the range of 10% up to 20%)” and the “Percent Gcase Activation, 1 μM Test Compound” value is recorded as “++ (Gcase activation in the range of 30% up to 60%)”.

For `Cc1cc(N2CC(C(C)C)OC2=O)nc2c(C(=O)NC(c3ccccc3)C(F)(F)F)cnn12` (stereo not drawn) [III-313], the “Percent Gcase Activation, 0.1 μM Test Compound” value was “*** (greater than 20% Gcase activation)” and the “Percent Gcase Activation, 1 μM Test Compound” value is reported as “+++ (Gcase activation greater than 60%)”.

As to `Cc1cc(N2C[C@H](c3ccccc3)OC2=O)nc2c(C(=O)NC(C3CC3)C(F)(F)F)cnn12` (stereo partly drawn) [III-314], the “Percent Gcase Activation, 0.1 μM Test Compound” value is reported as “*** (greater than 20% Gcase activation)” and the “Percent Gcase Activation, 1 μM Test Compound” value is “+++ (Gcase activation greater than 60%)”.

In the case of `Cc1cc(N2C[C@@H](c3ccccc3)OC2=O)nc2c(C(=O)NC(C3CC3)C(F)(F)F)cnn12` (stereo partly drawn) [III-315], the “Percent Gcase Activation, 0.1 μM Test Compound” value was “*** (greater than 20% Gcase activation)” and the “Percent Gcase Activation, 1 μM Test Compound” value is listed as “+++ (Gcase activation greater than 60%)”.

As for `Cc1cc(N2CC(C(C)C)OC2=O)nc2c(C(=O)NC(C3CC3)C(F)(F)F)cnn12` (stereo not drawn) [III-316], the “Percent Gcase Activation, 0.1 μM Test Compound” value was “** (Gcase activation in the range of 10% up to 20%)” and the “Percent Gcase Activation, 1 μM Test Compound” value was “+++ (Gcase activation greater than 60%)”.

As to `Cc1cc(N2CC(C(C)C)OC2=O)nc2c(C(=O)N[C@H](C3CC3)C(F)(F)F)cnn12` (stereo partly drawn) [III-317], the “Percent Gcase Activation, 0.1 μM Test Compound” value is “** (Gcase activation in the range of 10% up to 20%)” and the “Percent Gcase Activation, 1 μM Test Compound” value is reported as “+++ (Gcase activation greater than 60%)”.

With `Cc1cc(N2CC(C(C)C)OC2=O)nc2c(C(=O)N[C@@H](C3CC3)C(F)(F)F)cnn12` (stereo partly drawn) [III-318], the “Percent Gcase Activation, 0.1 μM Test Compound” value is reported as “** (Gcase activation in the range of 10% up to 20%)” and the “Percent Gcase Activation, 1 μM Test Compound” value is recorded as “+++ (Gcase activation greater than 60%)”.

Consider `Cc1cc(N2CC(C)(C)NC2=O)nc2c(C(=O)NC(C3CC3)C(F)(F)F)cnn12` (stereo not drawn) [III-319], for which the “Percent Gcase Activation, 0.1 μM Test Compound” value is given as “** (Gcase activation in the range of 10% up to 20%)” and the “Percent Gcase Activation, 1 μM Test Compound” value is given as “+++ (Gcase activation greater than 60%)”.

`Cc1cc(N2CC(C(C)C)NC2=O)nc2c(C(=O)NC(C3CC3)C(F)(F)F)cnn12` (stereo not drawn) [III-320]: the “Percent Gcase Activation, 0.1 μM Test Compound” value is recorded as “*** (greater than 20% Gcase activation)” and the “Percent Gcase Activation, 1 μM Test Compound” value was “+++ (Gcase activation greater than 60%)”.

With `Cc1nc2cc(-c3cc(C)n4ncc(C(=O)N[C@@H](C)C5CC5)c4n3)ccc2o1` [III-321], the “Percent Gcase Activation, 0.1 μM Test Compound” value is listed as “*** (greater than 20% Gcase activation)” and the “Percent Gcase Activation, 1 μM Test Compound” value is “+++ (Gcase activation greater than 60%)”.

Regarding `Cc1cc(C2=CC(C)(C)CCO2)nc2c(C(=O)NC(C3CC3)C(F)(F)F)cnn12` (stereo not drawn) [III-322], the “Percent Gcase Activation, 0.1 μM Test Compound” value is recorded as “*** (greater than 20% Gcase activation)” and the “Percent Gcase Activation, 1 μM Test Compound” value is on record as “+++ (Gcase activation greater than 60%)”.

Take `Cc1cc(C2CC(C)(C)CCO2)nc2c(C(=O)NC(C3CC3)C(F)(F)F)cnn12` (stereo not drawn) [III-323]: the “Percent Gcase Activation, 0.1 μM Test Compound” value was “** (Gcase activation in the range of 10% up to 20%)” and the “Percent Gcase Activation, 1 μM Test Compound” value is on record as “+++ (Gcase activation greater than 60%)”.

Consider `Cc1cc(-c2cccnn2)nc2c(C(=O)NC(C3CC3)C(F)(F)F)cnn12` (stereo not drawn) [III-324], for which the “Percent Gcase Activation, 0.1 μM Test Compound” value was “* (less than 10% Gcase activation)” and the “Percent Gcase Activation, 1 μM Test Compound” value is reported as “+ (less than 30% Gcase activation)”.

Take `Cc1cc(-c2ccnnc2)nc2c(C(=O)NC(C3CC3)C(F)(F)F)cnn12` (stereo not drawn) [III-325]: the “Percent Gcase Activation, 0.1 μM Test Compound” value was “* (less than 10% Gcase activation)” and the “Percent Gcase Activation, 1 μM Test Compound” value was “+ (less than 30% Gcase activation)”.

`Cc1cc(N2CCN(C(C)C)C2=O)nc2c(C(=O)N[C@@H](C3CC3)C(F)(F)F)cnn12` [III-326]: the “Percent Gcase Activation, 0.1 μM Test Compound” value is listed as “* (less than 10% Gcase activation)” and the “Percent Gcase Activation, 1 μM Test Compound” value is given as “+++ (Gcase activation greater than 60%)”.

Take `Cc1cc(N2CCN(C(C)C)C2=O)nc2c(C(=O)N[C@H](C3CC3)C(F)(F)F)cnn12` [III-327]: the “Percent Gcase Activation, 0.1 μM Test Compound” value is recorded as “** (Gcase activation in the range of 10% up to 20%)” and the “Percent Gcase Activation, 1 μM Test Compound” value was “+++ (Gcase activation greater than 60%)”.

For the compound `Cc1cc(N2CCC(C)(C)C2=O)nc2c(C(=O)NC(C3CC3)C(F)(F)F)cnn12` (stereo not drawn) [III-328], the “Percent Gcase Activation, 0.1 μM Test Compound” value is on record as “** (Gcase activation in the range of 10% up to 20%)” and the “Percent Gcase Activation, 1 μM Test Compound” value is recorded as “+++ (Gcase activation greater than 60%)”.

Take `Cc1cc(N2CCN(c3ccccc3)C2=O)nc2c(C(=O)N[C@H](C)C(F)(F)F)cnn12` [III-329]: the “Percent Gcase Activation, 0.1 μM Test Compound” value is on record as “* (less than 10% Gcase activation)” and the “Percent Gcase Activation, 1 μM Test Compound” value is recorded as “+ (less than 30% Gcase activation)”.

On to `Cc1cc(N2CCN(c3ccccc3)C2=O)nc2c(C(=O)N[C@H](C3CC3)C(F)(F)F)cnn12` [III-330], for which the “Percent Gcase Activation, 0.1 μM Test Compound” value was “** (Gcase activation in the range of 10% up to 20%)” and the “Percent Gcase Activation, 1 μM Test Compound” value is on record as “++ (Gcase activation in the range of 30% up to 60%)”.

On to `Cc1nc(-c2cc(C)n3ncc(C(=O)N[C@H](C4CC4)C(F)(F)F)c3n2)oc1C` [III-331], for which the “Percent Gcase Activation, 0.1 μM Test Compound” value is listed as “*** (greater than 20% Gcase activation)” and the “Percent Gcase Activation, 1 μM Test Compound” value is reported as “+++ (Gcase activation greater than 60%)”.

For `Cc1oc(C(C)C)nc1-c1cc(C)n2ncc(C(=O)N[C@H](C3CC3)C(F)(F)F)c2n1` [III-332], the “Percent Gcase Activation, 0.1 μM Test Compound” value is reported as “*** (greater than 20% Gcase activation)” and the “Percent Gcase Activation, 1 μM Test Compound” value is recorded as “+++ (Gcase activation greater than 60%)”.

For `Cc1nc(-c2cc(C)n3ncc(C(=O)N[C@H](C4CC4)C(F)(F)F)c3n2)c(C)o1` [III-333], the “Percent Gcase Activation, 0.1 μM Test Compound” value is listed as “*** (greater than 20% Gcase activation)” and the “Percent Gcase Activation, 1 μM Test Compound” value is listed as “+++ (Gcase activation greater than 60%)”.

As for `Cc1cc(-c2ccc(F)o2)nc2c(C(=O)N[C@H](C)C(F)(F)F)cnn12` [III-334], the “Percent Gcase Activation, 0.1 μM Test Compound” value was “*** (greater than 20% Gcase activation)” and the “Percent Gcase Activation, 1 μM Test Compound” value is on record as “+++ (Gcase activation greater than 60%)”.

In the case of `Cc1cc(-c2ccoc2F)nc2c(C(=O)N[C@H](C)C(F)(F)F)cnn12` [III-335], the “Percent Gcase Activation, 0.1 μM Test Compound” value was “*** (greater than 20% Gcase activation)” and the “Percent Gcase Activation, 1 μM Test Compound” value is “+++ (Gcase activation greater than 60%)”.

As for `Cc1cocc1-c1cc(C)n2ncc(C(=O)N[C@H](C)C(F)(F)F)c2n1` [III-336], the “Percent Gcase Activation, 0.1 μM Test Compound” value was “*** (greater than 20% Gcase activation)” and the “Percent Gcase Activation, 1 μM Test Compound” value was “+++ (Gcase activation greater than 60%)”.
